# Measured values reported in ChEMBL document CHEMBL3112450, “Synthesis and in vitro antitumor evaluation of primary amine substituted quinazoline linked benzimidazole” (Bioorg Med Chem Lett, 2014).
# System: LOX IMVI
# Test: Cytotoxicity against human LOXIMVI cells assessed as cell growth at 10^-5 M after 48 hrs by SRB assay
# Format: functional
# Conditions: read-out: Activity
row,SMILES,growth at 10 µM [%]
1,C=CCn1c(C)nc2ccc(Nc3nc(Nc4ccc(F)cc4)nc4ccccc34)cc21,24

# System: BT-549
# Test: Cytotoxicity against human BT549 cells assessed as cell growth at 10^-5 M after 48 hrs by SRB assay
# Format: functional
# Conditions: BT-549, 48 h, read-out: Activity
row,SMILES,growth at 10 µM [%]
1,C=CCn1c(C)nc2ccc(Nc3nc(Nc4ccc(F)cc4)nc4ccccc34)cc21,21

# System: not listed separately
# Test: Cytotoxicity against human Hs578T cells assessed as cell growth at 10^-5 M after 48 hrs by SRB assay
# Format: functional
# Conditions: Hs-578T, read-out: Activity
row,SMILES,growth at 10 µM [%]
1,C=CCn1c(C)nc2ccc(Nc3nc(Nc4ccc(F)cc4)nc4ccccc34)cc21,50

# System: SN12C
# Test: Cytotoxicity against human SN12C cells assessed as cell growth at 10^-5 M after 48 hrs by SRB assay
# Format: functional
# Conditions: read-out: Activity
row,SMILES,growth at 10 µM [%]
1,C=CCn1c(C)nc2ccc(Nc3nc(Nc4ccc(F)cc4)nc4ccccc34)cc21,11

# System: OVCAR-3
# Test: Cytotoxicity against human OVCAR3 cells assessed as cell growth at 10^-5 M after 48 hrs by SRB assay
# Format: functional
# Conditions: OVCAR-3, 48 h, read-out: Activity
row,SMILES,growth at 10 µM [%]
1,C=CCn1c(C)nc2ccc(Nc3nc(Nc4ccc(F)cc4)nc4ccccc34)cc21,30

# System: RXF 393
# Test: Cytotoxicity against human RXF393 cells assessed as cell growth at 10^-5 M after 48 hrs by SRB assay
# Format: functional
# Conditions: RXF 393, 48 h, read-out: Activity
row,SMILES,growth at 10 µM [%]
1,C=CCn1c(C)nc2ccc(Nc3nc(Nc4ccc(F)cc4)nc4ccccc34)cc21,-92

# System: SK-MEL-5
# Test: Cytotoxicity against human SK-MEL-5 cells assessed as cell growth at 10^-5 M after 48 hrs by SRB assay
# Format: functional
# Conditions: SK-MEL-5, 48 h, read-out: Activity
row,SMILES,growth at 10 µM [%]
1,C=CCn1c(C)nc2ccc(Nc3nc(Nc4ccc(F)cc4)nc4ccccc34)cc21,-100

# System: SNB-75
# Test: Cytotoxicity against human SNB75 cells assessed as cell growth at 10^-5 M after 48 hrs by SRB assay
# Format: functional
# Conditions: SNB-75, 48 h, read-out: Activity
row,SMILES,growth at 10 µM [%]
1,C=CCn1c(C)nc2ccc(Nc3nc(Nc4ccc(F)cc4)nc4ccccc34)cc21,-68

# System: DU-145
# Test: Cytotoxicity against human DU145 cells assessed as cell growth at 10^-5 M after 48 hrs by SRB assay
# Format: functional
# Conditions: DU-145, 48 h, read-out: Activity
row,SMILES,growth at 10 µM [%]
1,C=CCn1c(C)nc2ccc(Nc3nc(Nc4ccc(F)cc4)nc4ccccc34)cc21,47

# System: NCI-H322M
# Test: Cytotoxicity against human NCI-H322M cells assessed as cell growth at 10^-5 M after 48 hrs by SRB assay
# Format: functional
# Conditions: read-out: Activity
row,SMILES,growth at 10 µM [%]
1,C=CCn1c(C)nc2ccc(Nc3nc(Nc4ccc(F)cc4)nc4ccccc34)cc21,41

# System: A498
# Test: Cytotoxicity against human A498 cells assessed as cell growth at 10^-5 M after 48 hrs by SRB assay
# Format: functional
# Conditions: A498, 48 h, read-out: Activity
row,SMILES,growth at 10 µM [%]
1,C=CCn1c(C)nc2ccc(Nc3nc(Nc4ccc(F)cc4)nc4ccccc34)cc21,42

# System: ACHN
# Test: Cytotoxicity against human ACHN cells assessed as cell growth at 10^-5 M after 48 hrs by SRB assay
# Format: functional
# Conditions: read-out: Activity
row,SMILES,growth at 10 µM [%]
1,C=CCn1c(C)nc2ccc(Nc3nc(Nc4ccc(F)cc4)nc4ccccc34)cc21,-54

# System: SK-OV-3
# Test: Cytotoxicity against human SKOV3 cells assessed as cell growth at 10^-5 M after 48 hrs by SRB assay
# Format: functional
# Conditions: SK-OV-3, 48 h, read-out: Activity
row,SMILES,growth at 10 µM [%]
1,C=CCn1c(C)nc2ccc(Nc3nc(Nc4ccc(F)cc4)nc4ccccc34)cc21,-74

# System: SW-620
# Test: Cytotoxicity against human SW620 cells assessed as cell growth at 10^-5 M after 48 hrs by SRB assay
# Format: functional
# Conditions: SW-620, 48 h, read-out: Activity
row,SMILES,growth at 10 µM [%]
1,C=CCn1c(C)nc2ccc(Nc3nc(Nc4ccc(F)cc4)nc4ccccc34)cc21,1

# System: SR
# Test: Cytotoxicity against human SR cells assessed as cell growth at 10^-5 M after 48 hrs by SRB assay
# Format: functional
# Conditions: read-out: Activity
row,SMILES,growth at 10 µM [%]
1,C=CCn1c(C)nc2ccc(Nc3nc(Nc4ccc(F)cc4)nc4ccccc34)cc21,-27

# System: TK-10
# Test: Cytotoxicity against human TK10 cells assessed as cell growth at 10^-5 M after 48 hrs by SRB assay
# Format: functional
# Conditions: TK-10, 48 h, read-out: Activity
row,SMILES,growth at 10 µM [%]
1,C=CCn1c(C)nc2ccc(Nc3nc(Nc4ccc(F)cc4)nc4ccccc34)cc21,40

# System: RPMI-8226
# Test: Cytotoxicity against human RPMI8226 cells assessed as cell growth at 10^-5 M after 48 hrs by SRB assay
# Format: functional
# Conditions: RPMI-8226, 48 h, read-out: Activity
row,SMILES,growth at 10 µM [%]
1,C=CCn1c(C)nc2ccc(Nc3nc(Nc4ccc(F)cc4)nc4ccccc34)cc21,-43

# System: HT-29
# Test: Cytotoxicity against human HT-29 cells assessed as cell growth at 10^-5 M after 48 hrs by SRB assay
# Format: functional
# Conditions: HT-29, 48 h, read-out: Activity
row,SMILES,growth at 10 µM [%]
1,C=CCn1c(C)nc2ccc(Nc3nc(Nc4ccc(F)cc4)nc4ccccc34)cc21,5

# System: SK-MEL-2
# Test: Cytotoxicity against human SK-MEL-2 cells assessed as cell growth at 10^-5 M after 48 hrs by SRB assay
# Format: functional
# Conditions: SK-MEL-2, 48 h, read-out: Activity
row,SMILES,growth at 10 µM [%]
1,C=CCn1c(C)nc2ccc(Nc3nc(Nc4ccc(F)cc4)nc4ccccc34)cc21,4

# System: HOP-92
# Test: Cytotoxicity against human HOP92 cells assessed as cell growth at 10^-5 M after 48 hrs by SRB assay
# Format: functional
# Conditions: HOP-92, 48 h, read-out: Activity
row,SMILES,growth at 10 µM [%]
1,C=CCn1c(C)nc2ccc(Nc3nc(Nc4ccc(F)cc4)nc4ccccc34)cc21,-8

# System: 786-0
# Test: Cytotoxicity against human 786-0 cells assessed as cell growth at 10^-5 M after 48 hrs by SRB assay
# Format: functional
# Conditions: 786-0, 48 h, read-out: Activity
row,SMILES,growth at 10 µM [%]
1,C=CCn1c(C)nc2ccc(Nc3nc(Nc4ccc(F)cc4)nc4ccccc34)cc21,43

# System: NCI-H23
# Test: Cytotoxicity against human NCI-H23 cells assessed as cell growth at 10^-5 M after 48 hrs by SRB assay
# Format: functional
# Conditions: NCI-H23, 48 h, read-out: Activity
row,SMILES,growth at 10 µM [%]
1,C=CCn1c(C)nc2ccc(Nc3nc(Nc4ccc(F)cc4)nc4ccccc34)cc21,28

# System: K562
# Test: Cytotoxicity against human K562 cells assessed as cell growth at 10^-5 M after 48 hrs by SRB assay
# Format: functional
# Conditions: K562, 48 h, read-out: Activity
row,SMILES,growth at 10 µM [%]
1,C=CCn1c(C)nc2ccc(Nc3nc(Nc4ccc(F)cc4)nc4ccccc34)cc21,3

# System: OVCAR-8
# Test: Cytotoxicity against human OVCAR8 cells assessed as cell growth at 10^-5 M after 48 hrs by SRB assay
# Format: functional
# Conditions: OVCAR-8, 48 h, read-out: Activity
row,SMILES,growth at 10 µM [%]
1,C=CCn1c(C)nc2ccc(Nc3nc(Nc4ccc(F)cc4)nc4ccccc34)cc21,4

# System: not listed separately
# Test: Cytotoxicity against human OVCAR4 cells assessed as cell growth at 10^-5 M after 48 hrs by SRB assay
# Format: functional
# Conditions: OVCAR-4, 48 h, read-out: Activity
row,SMILES,growth at 10 µM [%]
1,C=CCn1c(C)nc2ccc(Nc3nc(Nc4ccc(F)cc4)nc4ccccc34)cc21,-26

# System: CCRF-CEM
# Test: Cytotoxicity against human CCRF-CEM cells assessed as cell growth at 10^-5 M after 48 hrs by SRB assay
# Format: functional
# Conditions: read-out: Activity
row,SMILES,growth at 10 µM [%]
1,C=CCn1c(C)nc2ccc(Nc3nc(Nc4ccc(F)cc4)nc4ccccc34)cc21,2

# System: T47D
# Test: Cytotoxicity against human T47D cells assessed as cell growth at 10^-5 M after 48 hrs by SRB assay
# Format: functional
# Conditions: read-out: Activity
row,SMILES,growth at 10 µM [%]
1,C=CCn1c(C)nc2ccc(Nc3nc(Nc4ccc(F)cc4)nc4ccccc34)cc21,-47

# System: SK-MEL-28
# Test: Cytotoxicity against human SK-MEL-28 cells assessed as cell growth at 10^-5 M after 48 hrs by SRB assay
# Format: functional
# Conditions: SK-MEL-28, 48 h, read-out: Activity
row,SMILES,growth at 10 µM [%]
1,C=CCn1c(C)nc2ccc(Nc3nc(Nc4ccc(F)cc4)nc4ccccc34)cc21,-91

# System: COLO 205
# Test: Cytotoxicity against human COLO205 cells assessed as cell growth at 10^-5 M after 48 hrs by SRB assay
# Format: functional
# Conditions: COLO 205, 48 h, read-out: Activity
row,SMILES,growth at 10 µM [%]
1,C=CCn1c(C)nc2ccc(Nc3nc(Nc4ccc(F)cc4)nc4ccccc34)cc21,-91

# System: PC-3
# Test: Cytotoxicity against human PC3 cells assessed as cell growth at 10^-5 M after 48 hrs by SRB assay
# Format: functional
# Conditions: PC-3, 48 h, read-out: Activity
row,SMILES,growth at 10 µM [%]
1,C=CCn1c(C)nc2ccc(Nc3nc(Nc4ccc(F)cc4)nc4ccccc34)cc21,16

# System: SF-268
# Test: Cytotoxicity against human SF268 cells assessed as cell growth at 10^-5 M after 48 hrs by SRB assay
# Format: functional
# Conditions: SF-268, 48 h, read-out: Activity
row,SMILES,growth at 10 µM [%]
1,C=CCn1c(C)nc2ccc(Nc3nc(Nc4ccc(F)cc4)nc4ccccc34)cc21,47

# System: Malme-3M
# Test: Cytotoxicity against human MALME-3M cells assessed as cell growth at 10^-5 M after 48 hrs by SRB assay
# Format: functional
# Conditions: read-out: Activity
row,SMILES,growth at 10 µM [%]
1,C=CCn1c(C)nc2ccc(Nc3nc(Nc4ccc(F)cc4)nc4ccccc34)cc21,63

# System: HCT-15
# Test: Cytotoxicity against human HCT15 cells assessed as cell growth at 10^-5 M after 48 hrs by SRB assay
# Format: functional
# Conditions: HCT-15, 48 h, read-out: Activity
row,SMILES,growth at 10 µM [%]
1,C=CCn1c(C)nc2ccc(Nc3nc(Nc4ccc(F)cc4)nc4ccccc34)cc21,1

# System: CAKI-1
# Test: Cytotoxicity against human Caki1 cells assessed as cell growth at 10^-5 M after 48 hrs by SRB assay
# Format: functional
# Conditions: CAKI-1, 48 h, read-out: Activity
row,SMILES,growth at 10 µM [%]
1,C=CCn1c(C)nc2ccc(Nc3nc(Nc4ccc(F)cc4)nc4ccccc34)cc21,42

# System: HL-60(TB)
# Test: Cytotoxicity against human HL-60(TB) cells assessed as cell growth at 10^-5 M after 48 hrs by SRB assay
# Format: functional
# Conditions: HL-60, 48 h, read-out: Activity
row,SMILES,growth at 10 µM [%]
1,C=CCn1c(C)nc2ccc(Nc3nc(Nc4ccc(F)cc4)nc4ccccc34)cc21,26

# System: SF-539
# Test: Cytotoxicity against human SF539 cells assessed as cell growth at 10^-5 M after 48 hrs by SRB assay
# Format: functional
# Conditions: SF-539, 48 h, read-out: Activity
row,SMILES,growth at 10 µM [%]
1,C=CCn1c(C)nc2ccc(Nc3nc(Nc4ccc(F)cc4)nc4ccccc34)cc21,64

# System: A549
# Test: Cytotoxicity against human A549 cells assessed as cell growth at 10^-5 M after 48 hrs by SRB assay
# Format: functional
# Conditions: A549, 48 h, read-out: Activity
row,SMILES,growth at 10 µM [%]
1,C=CCn1c(C)nc2ccc(Nc3nc(Nc4ccc(F)cc4)nc4ccccc34)cc21,26

# System: HOP-62
# Test: Cytotoxicity against human HOP62 cells assessed as cell growth at 10^-5 M after 48 hrs by SRB assay
# Format: functional
# Conditions: HOP-62, 48 h, read-out: Activity
row,SMILES,growth at 10 µM [%]
1,C=CCn1c(C)nc2ccc(Nc3nc(Nc4ccc(F)cc4)nc4ccccc34)cc21,-70
